Test results: patent US20180298010A1, “PRMT5 INHIBITORS AND USES THEREOF” (Epizyme, Inc., priority 2012, published 2018)

Biological target: T1, PRMT5/MEP50 (Homo sapiens, UniProt O14744)
T1 construct: Flag-PRMT5; 6His-MEP50
Assay: PRMT5 Biochemical Assay (PRMT5/MEP50 enzyme assay on peptide substrate, 3H-SAM Flashplate)
Description: General Materials. S-adenosylmethionine (SAM), S-adenosylhomocysteine (SAH), bicine, KCl, Tween20, dimethylsulfoxide (DMSO), bovine skin gelatin (BSG), and Tris(2-carboxyethyl)phosphine hydrochloride solution (TCEP) were purchased from Sigma-Aldrich at the highest level of purity possible. ^3H-SAM was purchase from American Radiolabeled Chemicals with a specific activity of 80 Ci/mmol. 384-well streptavidin Flashplates were purchased from PerkinElmer.
Substrates. Peptide representative of human histone H4 residues 1-15 was synthesized with a C-terminal linker-affinity tag motif and a C-terminal amide cap by 21st Century Biochemicals. The peptide was high high-perfomance liquid chromatography (HPLC) purified to greater than 95% purity and confirmed by liquid chromatography mass spectrometry (LC-MS). The sequence was Ac-[…][K-Biot]-amide (SEQ ID NO.:3).
Molecular Biology: Full-length human PRMT5 (NM_006109.3) transcript variant 1 clone was amplified from a fetal brain cDNA library, incorporating flanking 5′ sequence encoding a FLAG tag ([…]) (SEQ ID NO.:4) fused directly to Ala 2 of PRMT5. Full-length human MEP50 (NM_024102) clone was amplified from a human testis cDNA library incorporating a 5′ sequence encoding a 6-histidine tag (MHHHHHH) (SEQ ID NO.:5) fused directly to Arg 2 of MEP50. The amplified genes were sublconed into pENTR/D/TEV (Life Technologies) and subsequently transferred by Gateway™ attL×attR recombination to pDEST8 baculvirus expression vector (Life Technologies).
Protein Expression. Recombinant baculovirus and Baculovirus-Infected Insect Cells (BIIC) were generated according to Bac-to-Bac kit instructions (Life Technologies) and Wasilko, 2006, respectively. Protein over-expression was accomplished by infecting exponentially growing Spodoptera frugiperda (SF9) cell culture at 1.2×10^6cell/ml with a 5000 fold dilution of BIIC stock. Infections were carried out at 27° C. for 72 hours, harvested by centrifugation, and stored at −80° C. for purification.
Protein Purification. […] Flag-PRMT5/6His-MeP50 was eluted with 300 mM Imidazole in the same buffer. The purity of recovered protein was 87%. Reference: Wasilko, D. J. and S. E. Lee: “TIPS: titerless infected-cells preservation and scale-up” Bioprocess J., 5 (2006), pp. 29-32.
General Procedure for PRMT5/MEP50 Enzyme Assays on Peptide Substrates. The assays were all performed in a buffer consisting of 20 mM Bicine (pH=7.6), 1 mM TCEP, 0.005% BSG, and 0.002% Tween20, prepared on the day of use. Compounds in 100% DMSO (1 ul) were spotted into a polypropylene 384-well V-bottom plates (Greiner) using a Platemate Plus outfitted with a 384-channel head (Thermo Scientific). DMSO (1 ul) was added to Columns 11, 12, 23, 24, rows A-H for the maximum signal control and 1 ul of SAH, a known product and inhibitor of PRMT5/MEP50, was added to columns 11, 12, 23, 24, rows I-P for the minimum signal control. A cocktail (40 ul) containing the PRMT5/MEP50 enzyme and the peptide was added by Multidrop Combi (Thermo-Fisher). The compounds were allowed to incubate with PRMT5/MEP50 for 30 min at 25 degrees Celsius, then a cocktail (10 ul) containing ^3H-SAM was added to initiate the reaction (final volume=51 ul). The final concentrations of the components were as follows: PRMT5/MEP50 was 4 nM, ^3H-SAM was 75 nM, peptide was 40 nM, SAH in the minimum signal control wells was 100 uM, and the DMSO concentration was […]. The assays were stopped by the addition of non-radioactive SAM (10 ul) to a final concentration of 600 uM, which dilutes the ^3H-SAM to a level where its incorporation into the peptide substrate is no longer detectable. 50 ul of the reaction in the 384-well polypropylene plate was then transferred to a 384-well Flashplate and the biotinylated peptides were allowed to bind to the streptavidin surface for at least 1 hour before being washed three times with 0.1% Tween20 in a Biotek ELx405 plate washer. […]

T1 sequence (O14744 with tags, fused parts or gaps): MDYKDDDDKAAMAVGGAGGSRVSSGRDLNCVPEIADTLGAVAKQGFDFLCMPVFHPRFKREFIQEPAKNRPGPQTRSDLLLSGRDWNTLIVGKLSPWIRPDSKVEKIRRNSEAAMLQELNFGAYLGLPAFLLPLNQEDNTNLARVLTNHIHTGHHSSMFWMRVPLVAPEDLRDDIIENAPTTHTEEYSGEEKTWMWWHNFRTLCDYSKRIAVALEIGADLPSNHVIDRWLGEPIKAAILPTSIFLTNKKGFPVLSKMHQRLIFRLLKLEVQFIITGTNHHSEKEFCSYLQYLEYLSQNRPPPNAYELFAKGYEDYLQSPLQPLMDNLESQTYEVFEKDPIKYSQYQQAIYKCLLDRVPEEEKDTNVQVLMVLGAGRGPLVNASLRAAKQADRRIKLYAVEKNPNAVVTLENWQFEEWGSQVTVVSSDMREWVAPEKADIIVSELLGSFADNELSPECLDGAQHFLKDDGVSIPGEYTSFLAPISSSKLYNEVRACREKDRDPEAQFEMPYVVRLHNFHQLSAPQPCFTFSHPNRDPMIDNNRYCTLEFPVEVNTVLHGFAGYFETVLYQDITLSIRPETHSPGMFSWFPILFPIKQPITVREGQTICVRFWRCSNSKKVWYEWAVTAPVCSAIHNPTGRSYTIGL
T1 sequence (Q9BQA1 with tags, fused parts or gaps partner): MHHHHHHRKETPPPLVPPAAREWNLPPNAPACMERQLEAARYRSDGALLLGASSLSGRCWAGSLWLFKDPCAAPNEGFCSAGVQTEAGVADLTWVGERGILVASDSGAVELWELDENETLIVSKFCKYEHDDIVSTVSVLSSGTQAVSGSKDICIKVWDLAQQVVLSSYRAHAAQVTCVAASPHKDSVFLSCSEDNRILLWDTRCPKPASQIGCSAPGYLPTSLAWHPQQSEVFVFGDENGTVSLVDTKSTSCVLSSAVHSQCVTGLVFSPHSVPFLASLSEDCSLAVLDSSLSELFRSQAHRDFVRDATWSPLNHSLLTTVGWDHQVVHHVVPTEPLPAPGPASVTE

`OC(COc1cccc(CNC2CCCC2)c1)CN1CCc2ccccc2C1` (centres unmarked) [Compound 1] and `OC(COc1cccc(CNC2CCCCC2)c1)CN1CCc2ccccc2C1` (centres unmarked) [Compound 4] fall in the same range of IC50: 0.101 to 1 µM for the first, 0.101 to 1 µM for the second.

`OC(COC1CCCN(c2ccccc2)C1)CN1CCc2ccccc2C1` (centres unmarked) [Compound 2] and `OC(COC1CCN(Cc2ccccc2)C1)CN1CCc2ccccc2C1` (centres unmarked) [Compound 35] fall in the same range of IC50: 1 to 10 µM for the first, 1 to 10 µM for the second.

First: OC(COc1ccc(OCC(O)CN2CCc3ccccc3C2)cc1)CN1CCc2ccccc2C1 (centres unmarked) [Compound 3]
Second: OC(COc1ccc(OCc2ccccc2)cc1)CN1CCc2ccccc2C1 (centres unmarked) [Compound 19]
The IC50 of the first is lower: 0.101 to 1 µM for the first, 1 to 10 µM for the second. The first is the more potent here.

Compared with `OC(COc1cccc(CNC2CCOCC2)c1)CN1CCc2ccccc2C1` (centres unmarked) [Compound 5, 1-(3,4-dihydroisoquinolin-2(1H)-yl)-3-(3-(((tetrahydro-2H-pyran-4-yl)amino)methyl)phenoxy)propan-2-ol], `OC(COc1cccc(CNC2CCNCC2)c1)CN1CCc2ccccc2C1` (centres unmarked) [Compound 13] is higher in IC50: 0.101 to 1 µM for the first, 1 to 10 µM for the second. The first is the more potent here.

First: OC(COc1cccc(CNc2cc[nH]n2)c1)CN1CCc2ccccc2C1 (centres unmarked) [Compound 6, 1-(3-(((1H-pyrazol-3-yl)amino)methyl)phenoxy)-3-(3,4-dihydroisoquinolin-2(1H)-yl)propan-2-ol]
Second: OC(COc1cccc(OCc2ccccc2)c1)CN1CCc2ccccc2C1 (centres unmarked) [Compound 20]
The IC50 of the first is lower: 0.101 to 1 µM for the first, 1 to 10 µM for the second.

Compared with `OC(COc1ccccc1N1CCNCC1)CN1CCc2ccccc2C1` (centres unmarked) [Compound 7], `OC(COc1ccccc1C1CCCCC1)CN1CCc2ccccc2C1` (centres unmarked) [Compound 8] is lower in IC50: 10 to 40 µM for the first, 1 to 10 µM for the second.

Compared with `OC(COc1ccc(-n2cncn2)cc1)CN1CCc2ccccc2C1` (centres unmarked) [Compound 9], `CC(C)n1nccc1-c1ccc(OCC(O)CN2CCc3ccccc3C2)cc1` (centres unmarked) [Compound 26] is higher in IC50: 1 to 10 µM for the first, 10 to 40 µM for the second. The first is the more potent here.

Compared with `OC(COc1ccc(Cc2ccccc2)cc1)CN1CCc2ccccc2C1` (centres unmarked) [Compound 10], `OC(COCc1ccc(OCc2ccccc2)cc1)CN1CCc2ccccc2C1` (centres unmarked) [Compound 12] is higher in IC50: 0.101 to 1 µM for the first, 1 to 10 µM for the second.

First: OC(COCc1cc(-c2ccc(Cl)cc2)no1)CN1CCc2ccccc2C1 (centres unmarked) [Compound 11]
Second: OC(COc1cccc(-c2ccc(Cl)cc2)c1)CN1CCc2ccccc2C1 (centres unmarked) [Compound 69]
The IC50 of the first is lower: 0.101 to 1 µM for the first, 1 to 10 µM for the second. The first is the more potent here.

`OC(COc1cccc(CN2CCCCC2)c1)CN1CCc2ccccc2C1` (centres unmarked) [Compound 14] and `OC(COc1cccc(C2CCCCC2)c1)CN1CCc2ccccc2C1` (centres unmarked) [Compound 52] fall in the same range of IC50: 1 to 10 µM for the first, 1 to 10 µM for the second.

First: OC(COc1cccc2ccc(N3CCOCC3)nc12)CN1CCc2ccccc2C1 (centres unmarked) [Compound 15]
Second: Cc1cc(OCC(O)CN2CCc3ccccc3C2)c(C)cc1CN1CCOCC1 (centres unmarked) [Compound 17]
The IC50 of the first is higher: 1 to 10 µM for the first, 0.101 to 1 µM for the second. The second is the more potent here.

`OC(COc1ccccc1-c1ccno1)CN1CCc2ccccc2C1` (centres unmarked) [Compound 16] and `COc1ccccc1-c1cccc(OCC(O)CN2CCc3ccccc3C2)c1` (centres unmarked) [Compound 71] fall in the same range of IC50: 1 to 10 µM for the first, 1 to 10 µM for the second.

`O=S1(=O)CCN(c2ccc(OCC(O)CN3CCc4ccccc4C3)cc2)CC1` (centres unmarked) [Compound 18] and `OC(COc1ccc(C2CCNCC2)cc1)CN1CCc2ccccc2C1` (centres unmarked) [Compound 25] fall in the same range of IC50: 1 to 10 µM for the first, 1 to 10 µM for the second.

`OC(COC1CCN(Cc2ccccc2)CC1)CN1CCc2ccccc2C1` (centres unmarked) [Compound 21] and `OC(COCc1ccc(CN2CCOCC2)cc1)CN1CCc2ccccc2C1` (centres unmarked) [Compound 46] fall in the same range of IC50: 1 to 10 µM for the first, 1 to 10 µM for the second.

First: CN(Cc1ccc(OCC(O)CN2CCc3ccccc3C2)cc1)C1CCCC1 (centres unmarked) [Compound 24]
Second: CN(CC(O)CN1CCc2ccccc2C1)c1cccc(CNC2CCCC2)c1 (centres unmarked) [Compound 53]
The IC50 of the first is higher: 1 to 10 µM for the first, 0.101 to 1 µM for the second. The second is the more potent here.

`CC(C)n1ccc(-c2ccc(OCC(O)CN3CCc4ccccc4C3)cc2)n1` (centres unmarked) [Compound 27] and `OC(COc1ccc(-c2ccn[nH]2)cc1)CN1CCc2ccccc2C1` (centres unmarked) [Compound 48] fall in the same range of IC50: 1 to 10 µM for the first, 1 to 10 µM for the second.

Compared with `Cc1nn(-c2ccccc2)c(C)c1COCC(O)CN1CCc2ccccc2C1` (centres unmarked) [Compound 28], `OC(COc1cccc(-c2ccccc2)c1)CN1CCc2ccccc2C1` (centres unmarked) [Compound 43, 1-([1,1′-biphenyl]-3-yloxy)-3-(3,4-dihydroisoquinolin-2(1H)-yl) propan-2-ol] is lower in IC50: 1 to 10 µM for the first, 0.101 to 1 µM for the second.

First: COc1cccc2c1CN(CC(O)COc1cccc(CNC3CCCC3)c1)CC2 (centres unmarked) [Compound 29]
Second: COC(COc1cccc(CNC2CCCC2)c1)CN1CCc2ccccc2C1 (centres unmarked) [Compound 32]
The IC50 of the first is higher: 10 to 40 µM for the first, 1 to 10 µM for the second.

First: O=C(c1ccc(Cn2nccc2-c2ccc(OCC(O)CN3CCc4ccccc4C3)cc2)cc1)N1CCCC1 (centres unmarked) [Compound 31, (4-((5-(4-(3-(3,4-dihydroisoquinolin-2(1H)-yl)-2-hydroxypropoxy)phenyl)-1H-pyrazol-1-yl)methyl)phenyl)(pyrrolidin-1-yl)methanone]
Second: O=C(c1ccc(Cn2ccc(-c3ccc(OCC(O)CN4CCc5ccccc5C4)cc3)n2)cc1)N1CCCC1 (centres unmarked) [Compound 34]
The IC50 of the first is lower: 0.101 to 1 µM for the first, 1 to 10 µM for the second.

First: CC(C(O)COc1cccc(CNC2CCCC2)c1)N1CCc2ccccc2C1 (centres unmarked) [Compound 33]
Second: CC(Oc1cccc(CNC2CCCC2)c1)C(O)CN1CCc2ccccc2C1 (centres unmarked) [Compound 49]
The IC50 of the first is higher: 1 to 10 µM for the first, 0.101 to 1 µM for the second. The second is the more potent here.

First: OC(CCc1cccc(CNC2CCCC2)c1)CN1CCc2ccccc2C1 (centres unmarked) [Compound 36]
Second: OC(CNc1cccc(CNC2CCCC2)c1)CN1CCc2ccccc2C1 (centres unmarked) [Compound 39, 1-((3-((cyclopentylamino)methyl)phenyl)amino)-3-(3,4-dihydroisoquinolin-2(1H)-yl)propan-2-ol]
The IC50 of the first is higher: 10 to 40 µM for the first, 0.101 to 1 µM for the second.

First: OC(COc1cccc(-c2cccnc2)c1)CN1CCc2ccccc2C1 (centres unmarked) [Compound 40]
Second: OCc1cccc(-c2cccc(OCC(O)CN3CCc4ccccc4C3)c2)c1 (centres unmarked) [Compound 72, 1-(3,4-dihydroisoquinolin-2(1H)-yl)-3-((3′-(hydroxymethyl)-[1,1′-biphenyl]-3-yl)oxy)propan-2-ol]
The IC50 of the first is higher: 1 to 10 µM for the first, 0.101 to 1 µM for the second. The second is the more potent here.

First: Cn1cc(-c2cccc(OCC(O)CN3CCc4ccccc4C3)c2)cn1 (centres unmarked) [Compound 44]
Second: Cn1cnc2cc(-c3cccc(OCC(O)CN4CCc5ccccc5C4)c3)ccc21 (centres unmarked) [Compound 60, 1-(3,4-dihydroisoquinolin-2(1H)-yl)-3-(3-(1-methyl-1H-benzo[d]imidazol-5-yl)phenoxy)propan-2-ol]
The IC50 of the first is higher: 1 to 10 µM for the first, 0.101 to 1 µM for the second.

`CC1c2ccccc2CCN1CC(O)COc1cccc(CNC2CCCC2)c1` (centres unmarked) [Compound 50] and `OC(COc1cccc(C2=CCCCC2)c1)CN1CCc2ccccc2C1` (centres unmarked) [Compound 57] fall in the same range of IC50: 1 to 10 µM for the first, 1 to 10 µM for the second.

First: OC(COc1cccc(-c2cccc(Oc3ccccc3)c2)c1)CN1CCc2ccccc2C1 (centres unmarked) [Compound 55]
Second: CC(=O)c1cccc(-c2cccc(OCC(O)CN3CCc4ccccc4C3)c2)c1 (centres unmarked) [Compound 67]
The IC50 of the first is higher: 1 to 10 µM for the first, 0.101 to 1 µM for the second. The second is the more potent here.

First: OC(COc1cccc(-c2cc(C(F)(F)F)ccc2Cl)c1)CN1CCc2ccccc2C1 (centres unmarked) [Compound 62, 1-((2′-chloro-5′-(trifluoromethyl)-[1,1′-biphenyl]-3-yl)oxy)-3-(3,4-dihydroisoquinolin-2(1H)-yl)propan-2-ol]
Second: COc1ccc(Cl)c(-c2cccc(OCC(O)CN3CCc4ccccc4C3)c2)c1 (centres unmarked) [Compound 64]
The IC50 of the first is lower: 0.101 to 1 µM for the first, 1 to 10 µM for the second.

Compared with `CS(=O)(=O)c1ccc(-c2cccc(OCC(O)CN3CCc4ccccc4C3)c2)cc1` (centres unmarked) [Compound 63], `OCc1ccc(-c2cccc(OCC(O)CN3CCc4ccccc4C3)c2)cc1` (centres unmarked) [Compound 73] is higher in IC50: 0.101 to 1 µM for the first, 1 to 10 µM for the second.

First: Cn1cnc2ccc(N3CCCC(OCC(O)CN4CCc5ccccc5C4)C3)cc21 (centres unmarked) [Compound 66]
Second: Oc1ccc(-c2cccc(OCC(O)CN3CCc4ccccc4C3)c2)cc1F (centres unmarked) [Compound 70]
The IC50 of the first is lower: 0.101 to 1 µM for the first, 1 to 10 µM for the second. The first is the more potent here.
